# Test results as given in ChEMBL document CHEMBL1782037, “Discovery and characterization of a nonphosphorylated cyclic peptide inhibitor of the peptidylprolyl isomerase, Pin1” (J Med Chem, 2011).
# Active and inactive are the calls of the source. The calls are words filed in the database; no cut-off is given here. Positions of bridges follow the written chain, without caps; N, C: chain ends. Residues, ends and D or L forms follow the SMILES beside them.
# Tests used:
# [1] = biological target: T1, Peptidyl-prolyl cis-trans isomerase NIMA-interacting 1 (Homo sapiens, UniProt Q13526); test: Inhibition of human GST-tagged-Pin1 PPIase activity using Suc-AEPF-pNA as substrate by Michaelis-Menten equation
# T1 sequence (Q13526 whole entry, the tested form may be a part): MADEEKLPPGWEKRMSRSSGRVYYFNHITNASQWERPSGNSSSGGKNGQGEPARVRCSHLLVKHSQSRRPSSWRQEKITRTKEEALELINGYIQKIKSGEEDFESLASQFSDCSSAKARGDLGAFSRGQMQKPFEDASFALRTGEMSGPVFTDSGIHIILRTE
# [2] = biological target: T1, Peptidyl-prolyl cis-trans isomerase NIMA-interacting 1; test: Binding affinity to human Pin1 WW domain at 480 uM by NMR chemical shift perturbation method
# [3] = biological target: T1, Peptidyl-prolyl cis-trans isomerase NIMA-interacting 1; test: Binding affinity to human Pin1 WW domain at 200 uM by agarose gel electrophoresis
# [4] = biological target: T1, Peptidyl-prolyl cis-trans isomerase NIMA-interacting 1; test: Binding affinity to human Pin1 PPIase domain at 480 uM by NMR chemical shift perturbation method
# [5] = biological target: T1, Peptidyl-prolyl cis-trans isomerase NIMA-interacting 1; test: Binding affinity to human Pin1 active site at 200 uM by NMR study
# [6] = biological target: T1, Peptidyl-prolyl cis-trans isomerase NIMA-interacting 1; test: Binding affinity to human Pin1 PPIase domain at 200 uM by agarose gel electrophoresis
# [7] = biological target: T1, Peptidyl-prolyl cis-trans isomerase NIMA-interacting 1; test: Competitive inhibition of human GST-tagged-Pin1 PPIase activity using WFYpSPR-pNA as substrate by Michaelis-Menten equation
# [8] = Solubility of the compound; type: physicochemical
Ki [1] [µM],Activity [2],Activity [3],Activity [4],Activity [5],Activity [6],Ki [7] [µM],solubility [8],Structure (SMILES)
44,,,,,,,,CC[C@H](C)[C@H](NC(=O)[C@H](CCC(=O)O)NC(=O)[C@@H](NC(=O)[C@H](CCC(=O)O)NC(=O)[C@@H]1CCCN1C(=O)[C@H](Cc1ccc(O)cc1)NC(=O)[C@H](CCCN=C(N)N)NC(=O)[C@@H](N)CS)C(C)C)C(=O)N[C@@H](CS)C(=O)O [CRYPEVEIC] (H-CRYPEVEIC-OH)
,inactive,inactive,Active,Active,Active,,,CC[C@H](C)[C@@H]1NC(=O)[C@H](CCC(=O)O)NC(=O)[C@H](C(C)C)NC(=O)[C@H](CCC(=O)O)NC(=O)[C@@H]2CCCN2C(=O)[C@H](Cc2ccc(O)cc2)NC(=O)[C@H](CCCNC(=N)N)NC(=O)[C@@H](N)CSSC[C@@H](C(=O)O)NC1=O (H-CRYPEVEIC-OH; disulfide 1-9)
0.52,,,,,,0.2,soluble,CC[C@H](C)[C@@H]1NC(=O)[C@H](CCC(=O)O)NC(=O)[C@H](C(C)C)NC(=O)[C@H](CCC(=O)O)NC(=O)[C@@H]2CCCN2C(=O)[C@H](Cc2ccc(O)cc2)NC(=O)[C@H](CCCN=C(N)N)NC(=O)[C@@H](N)CSSC[C@@H](C(=O)O)NC1=O [CYCLIC CRYPEVEIC] (H-CRYPEVEIC-OH; disulfide 1-9)
